ChEMBL document CHEMBL4715872, “Soluble Guanylate Cyclase Inhibitors Discovered among Natural Compounds” (J Nat Prod, 2020)
Calls of active or inactive are those of the source. No cut-off for these calls is given here.

Tests used:
HEPC-CB.1 [1] = assay: Inhibition of angiogenesis in HEPC-CB1 cells assessed as decrease in total length of pseudovessels at 10 uM after 13 hrs by fluorescence inverted microscopic analysis; format: functional, cell-based; settings: Homo sapiens
HEPC-CB.1 [2] = assay: Inhibition of angiogenesis in HEPC-CB1 cells assessed as decrease in number of closed structures at 10 uM after 13 hrs by fluorescence inverted microscopic analysis; format: functional, cell-based; settings: Homo sapiens
[3] = Inhibition of human sGC expressed in HUVEC cells assessed as reduction in GMP level incubated for 2 hrs by ELISA; format: cell-based
HUVEC [4] = assay: Selectivity ratio of inhibition of human sGC expressed in HUVEC cells assessed as reduction in GMP level at 2 uM in presence of NPS to inhibition of human sGC expressed in HUVEC cells assessed as reduction in GMP level at 2 uM in presence of NPS/BAY-412272; format: cell-based
HUVEC [5] = assay: Selectivity ratio of IC50 for inhibition of human sGC expressed in HUVEC cells assessed as reduction in GMP level incubated for 2 hrs to human sGC expressed in HUVEC cells assessed as reduction in GMP level incubated for 2 hrs in presence of NPS; format: cell-based
HUVEC [6] = assay: Inhibition of human sGC expressed in HUVEC cells assessed as reduction in GMP level at 2 uM in presence of NPS by ELISA relative to control; format: cell-based
[7] = Inhibition of bovine lung sGC assessed as reduction in GMP level incubated for 2 to 12 hrs in presence of NPS by ELISA; format: tissue-based, Bos taurus
[8] = Inhibition of human sGC expressed in HUVEC cells assessed as reduction in GMP level incubated for 24 hrs in presence of NPS by ELISA; format: cell-based
[9] = Inhibition of bovine lung sGC assessed as reduction in GMP level incubated for 2 hrs in presence of NPS by ELISA; format: tissue-based, Bos taurus
HUVEC [10] = assay: Selectivity ratio of inhibition of human sGC expressed in HUVEC cells assessed as reduction in GMP level at 20 uM in presence of NPS to inhibition of human sGC expressed in HUVEC cells assessed as reduction in GMP level at 20 uM in presence of NPS/BAY-412272; format: cell-based
HEPC-CB.1 [11] = assay: Inhibition of angiogenesis in HEPC-CB1 cells assessed as decrease in pseudovessels at 10 uM after 13 hrs by fluorescence inverted microscopic analysis; format: functional, cell-based; settings: Homo sapiens
[12] = Inhibition of human sGC expressed in HUVEC cells assessed as reduction in GMP level incubated for 48 hrs by ELISA; format: cell-based
[13] = Inhibition of bovine lung sGC assessed as reduction in GMP level incubated for 48 hrs in presence of NPS by ELISA; format: tissue-based, Bos taurus
HUVEC [14] = assay: Inhibition of full length human sGC expressed in HUVEC cells assessed as increase in oxidation of heme at 20 uM after 2 hrs by spectroscopic analysis; format: cell-based
[15] = Inhibition of human sGC expressed in HUVEC cells assessed as reduction in GMP level incubated for 48 hrs in presence of NPS by ELISA; format: cell-based
[16] = Inhibition of angiogenesis in HEPC-CB1 cells assessed as decrease in pseudovessels at 10 to 20 uM after 13 hrs by fluorescence inverted microscopic analysis; format: functional, Homo sapiens, HEPC-CB.1; settings: dose 10-20 µM
[17] = Inhibition of angiogenesis in HEPC-CB1 cells assessed as decrease in total length of pseudovessels at 10 to 20 uM after 13 hrs by fluorescence inverted microscopic analysis; format: functional, Homo sapiens, HEPC-CB.1; settings: dose 10-20 µM
[18] = Inhibition of angiogenesis in HEPC-CB1 cells assessed as decrease in number of closed structures at 10 to 20 uM after 13 hrs by fluorescence inverted microscopic analysis; format: functional, Homo sapiens, HEPC-CB.1; settings: dose 10-20 µM
[19] = Inhibition of bovine lung sGC assessed as reduction in GMP level incubated for 2 hrs in presence of NPS/BAY-412272 by ELISA; format: tissue-based, Bos taurus
Bos taurus = organism: Bos taurus; assay: Selectivity ratio of IC50 for inhibition of bovine lung sGC assessed as reduction in GMP level in presence of NPS/BAY-412272 to IC50 for inhibition of bovine lung sGC assessed as reduction in GMP level in presence of NPS; format: tissue-based
[20] = Inhibition of human sGC expressed in HUVEC cells assessed as reduction in GMP level incubated for 24 hrs by ELISA; format: cell-based
[21] = Inhibition of bovine lung sGC assessed as reduction in GMP level incubated for 2 hrs in presence of BAY-412272 by ELISA; format: tissue-based, Bos taurus
[22] = Inhibition of rat small intestine GST using CDNB as substrate by spectrophotometric method; format: tissue-based
HUVEC [23] = assay: Inhibition of human sGC expressed in HUVEC cells assessed as reduction in GMP level at 20 uM in presence of NPS/BAY-412272 by ELISA relative to control; format: cell-based
[24] = biological target: T1, Dopamine beta-hydroxylase (Homo sapiens, UniProt P09172); assay: Inhibition of Dopamine beta-hydroxylase (unknown origin) incubated for 10 mins
T1 sequence (P09172 whole entry): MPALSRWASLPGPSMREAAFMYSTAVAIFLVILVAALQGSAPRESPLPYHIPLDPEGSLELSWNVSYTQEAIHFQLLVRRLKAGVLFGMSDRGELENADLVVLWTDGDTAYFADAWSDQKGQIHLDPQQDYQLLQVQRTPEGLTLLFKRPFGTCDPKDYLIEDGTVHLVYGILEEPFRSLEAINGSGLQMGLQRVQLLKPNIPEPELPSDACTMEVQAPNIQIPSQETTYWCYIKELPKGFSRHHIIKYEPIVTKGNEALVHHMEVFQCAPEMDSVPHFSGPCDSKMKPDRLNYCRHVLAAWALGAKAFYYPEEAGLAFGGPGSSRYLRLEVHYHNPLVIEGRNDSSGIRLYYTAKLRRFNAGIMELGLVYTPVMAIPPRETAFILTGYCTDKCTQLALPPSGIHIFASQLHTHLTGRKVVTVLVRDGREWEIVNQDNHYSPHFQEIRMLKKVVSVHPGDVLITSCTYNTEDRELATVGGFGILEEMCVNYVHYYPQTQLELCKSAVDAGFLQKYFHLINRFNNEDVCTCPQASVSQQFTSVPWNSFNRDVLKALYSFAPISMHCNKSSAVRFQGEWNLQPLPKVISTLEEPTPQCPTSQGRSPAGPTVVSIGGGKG

[25] = Inhibition of Francisella tularensis FabZ
HEPC-CB.1 [26] = assay: Inhibition of angiogenesis in HEPC-CB1 cells assessed as decrease in total length of pseudovessels at 20 uM after 13 hrs by fluorescence inverted microscopic analysis; format: functional, cell-based; settings: Homo sapiens
Hepatocyte = assay: Cytotoxicity against rat hepatocytes assessed as induction intracellular LDH release incubated for 8 to 24 hrs; format: cell-based
[27] = Inhibition of Yersinia pestis FabZ
HEPC-CB.1 [28] = assay: Inhibition of angiogenesis in HEPC-CB1 cells assessed as decrease in pseudovessels at 20 uM after 13 hrs by fluorescence inverted microscopic analysis; format: functional, cell-based; settings: Homo sapiens
HEPC-CB.1 [29] = assay: Inhibition of angiogenesis in HEPC-CB1 cells assessed as decrease in number of closed structures at 20 uM after 13 hrs by fluorescence inverted microscopic analysis; format: functional, cell-based; settings: Homo sapiens

SMILES	IC50 [7] [nM]	IC50 [8] [nM]	IC50 [9] [nM]	inhibition (HUVEC [14])	IC50 [19] [nM]	Ratio IC50 (Bos taurus)	IC50 [20] [nM]	IC50 [21] [nM]	further results
COc1c(O)c2c(=O)cc(OC)c3c4c(OC)cc(O)c5c(=O)c(OC)c6c(c(c1[C@H](C(C)=O)[C@](C)(O)C6)c23)c54	1500	1500	1500	–	–	–	–	–	inhibition (HEPC-CB.1 [1]): Active; inhibition (HEPC-CB.1 [2]): Active; IC50 [3]: 800 nM; Ratio IC50 (HUVEC [4]): 3; Ratio IC50 (HUVEC [5]): 2; inhibition (HUVEC [6]): < 95%; Ratio IC50 (HUVEC [10]): 2; inhibition (HEPC-CB.1 [11]): Active
O=C1C(O)=C(O)C(=O)c2c(O)c(Cl)cc(O)c21	–	–	–	inactive	–	–	–	–	IC50 [12]: 12000 nM; IC50 [13]: 3000 nM; IC50 [15]: 13000 nM
O=C1C(O)=C(O)C(=O)c2c(O)ccc(O)c21	–	–	–	inactive	–	–	–	–	fold change (FC) [16]: 2; IC50 [12]: 12000 nM; fold change (FC) [17]: 2; IC50 [13]: 5000 nM; fold change (FC) [18]: 2; IC50 [15]: 10000 nM
CC(=O)OC1=C(O)C(=O)c2c(OC(C)=O)ccc(OC(C)=O)c2C1=O	200	28000	500	Active	1000	2	29000	1400	–
Cc1cc(O)c2c(=O)c3c(O)cc(O)c4c5c(O)cc(O)c6c(=O)c7c(O)cc(C)c8c1c2c(c34)c(c78)c65 [HYPERICIN]	200	700	400	–	350	–	–	320	inhibition (HEPC-CB.1 [1]): Active; Ki [22]: 200 nM; inhibition (HEPC-CB.1 [2]): Active; IC50 [3]: 400 nM; Ratio IC50 (HUVEC [4]): 3; inhibition (HUVEC [23]): Active; IC50 [24]: 21000 nM; Ratio IC50 (HUVEC [5]): 2; inhibition (HUVEC [6]): < 95%; inhibition (HEPC-CB.1 [11]): Active
COc1cc(C)c2c(c1C=O)Oc1c(c(C)c(O)c3c1C(O)OC3=O)OC2=O (configuration not stated) [STICTIC ACID]	200	47000	300	inactive	2500	2	44000	2600	IC50 [25]: 13000 nM; inhibition (HEPC-CB.1 [26]): Active; IC50 (Hepatocyte): ≤ 13000 nM; IC50 [27]: 13000 nM; inhibition (HEPC-CB.1 [28]): Active; inhibition (HEPC-CB.1 [29]): Active
COc1cc(C/C=C/c2ccccc2)c(OC)cc1O [VIOLASTYRENE]	800	16000	800	Active	1800	2	16000	4900	–
